Measured values taken from patent publication US20260125371A1, “METHOD FOR INHIBITING CLOSTRIDIOIDES DIFFICILE SPORE GERMINATION” (UNIVERSITY OF NOTRE DAME DU LAC, priority 2022, published 2026).
Converted amounts (≈) assume the structure as drawn. Where two headings read alike, the source gives them in different places.

What was measured:
[1] = test system: Bifidobacterium longum HM-846; conditions: cited from earlier work
S. aureus = experiment: MIC against S. aureus strains; assay type: cell-based
[2] = test system: S. haemolyticus ATCC 29970; experiment: MIC against S. haemolyticus; assay type: cell-based; conditions: Staphylococcus haemolyticus, ATCC29970
Gram-negative bacteria = assay type: cell-based
[3] = test system: Lactobacillus gasseri HM-644; conditions: cited from earlier work
[4] = test system: Corynebacterium spp. HM-784; conditions: cited from earlier work
C. difficile ATCC 43255 [5] = experiment: Minimal-bactericidal concentration (MBC); assay type: cell-based, Clostridioides difficile; conditions: MBC/MIC≤4 indicates bactericidal
C. difficile strains = conditions: cited from earlier work
K. pneumoniae ATCC700603 = experiment: MIC against K. pneumoniae; assay type: cell-based; conditions: Klebsiella pneumoniae; K. pneumoniae ATCC700603; read-out: MIC
THP-1 cells = experiment: Lactate dehydrogenase (LDH) cytotoxicity assay; assay type: cell-based, human; conditions: Homo sapiens
C. difficile ATCC 43255 [6] = experiment: Determination of minimal-inhibitory concentrations (microdilution), C. difficile ATCC 43255; assay type: cell-based, Clostridioides difficile; conditions: Clostridioides difficile

Cc1ncc([N+](=O)[O-])n1CCO [MTZ, metronidazole]
MIC [1]: 0.05 µg/mL (≈ 0.292 µM) | MIC (S. aureus; S. aureus VRS2): >256 µg/mL | MIC (S. aureus; Staphylococcus aureus): > 256 µg/mL | MIC (S. aureus; Staphylococcus aureus, ATCC27660): > 256 µg/mL | MIC (S. aureus; Staphylococcus aureus, ATCC29213): > 256 µg/mL | MIC [2]: > 256 µg/mL | activity against Gram-negative organisms (Gram-negative bacteria): no activity | MIC [3]: >32 µg/mL | MIC [4]: >32 µg/mL | bactericidal or bacteriostatic (C. difficile ATCC 43255 [5]): bactericidal | IMIC50 (101 strains) (C. difficile strains; 101 C. difficile strains): 0.5 µg/mL | MIC (C. difficile strains; C. difficile 23828, resistant to FDX): 0.5 µg/mL (≈ 2.92 µM) | MIC (C. difficile strains; C. difficile 24531, resistant to VAN): 0.5 µg/mL (≈ 2.92 µM) | MIC (C. difficile strains; C. difficile 26675, resistant to MTZ): 4 µg/mL (≈ 23.4 µM) | MIC (C. difficile strains; C. difficile BAA-1803): 0.5 µg/mL (≈ 2.92 µM) | MIC (C. difficile strains; C. difficile BAA-1870): 0.5 µg/mL (≈ 2.92 µM) | MIC50 (C. difficile strains; C. difficile strains of Table 4): 0.5 µg/mL (≈ 2.92 µM) | MIC (C. difficile strains; strain BAA-1803): 0.5 µg/mL (≈ 2.92 µM) | MIC (C. difficile strains; strain BAA-1870): 0.5 µg/mL (≈ 2.92 µM) | MIC (C. difficile strains; strain HM-745): 0.5 µg/mL (≈ 2.92 µM) | MIC (C. difficile strains; strain HM-747): 0.5 µg/mL (≈ 2.92 µM) | MIC (C. difficile strains; strain NR-13430): 0.5 µg/mL (≈ 2.92 µM) | MIC (C. difficile strains; strain NR-13431): 0.5 µg/mL (≈ 2.92 µM) | MIC (C. difficile strains; strain NR-13433): 0.5 µg/mL (≈ 2.92 µM) | MIC (C. difficile strains; strain NR-13434): 0.5 µg/mL (≈ 2.92 µM) | MIC (C. difficile strains; strain NR-13435): 0.5 µg/mL (≈ 2.92 µM) | MIC (C. difficile strains; strain NR-13436): 0.5 µg/mL (≈ 2.92 µM) | MIC (C. difficile strains; strain NR-13437): 0.5 µg/mL (≈ 2.92 µM) | MIC (C. difficile strains; strain NR-13438): 0.5 µg/mL (≈ 2.92 µM) | MIC (C. difficile strains; strain NR-13553): 0.5 µg/mL (≈ 2.92 µM) | MIC (C. difficile strains; strain NR-32883): 0.5 µg/mL (≈ 2.92 µM) | MIC (C. difficile strains; strain NR-32884): 0.5 µg/mL (≈ 2.92 µM) | MIC (C. difficile strains; strain NR-32885): 0.5 µg/mL (≈ 2.92 µM) | MIC (C. difficile strains; strain NR-32886): 0.5 µg/mL (≈ 2.92 µM) | MIC (C. difficile strains; strain NR-32888): 0.5 µg/mL (≈ 2.92 µM) | MIC (C. difficile strains; strain NR-32890): 0.5 µg/mL (≈ 2.92 µM) | MIC (C. difficile strains; strain NR-32892): 0.5 µg/mL (≈ 2.92 µM) | MIC (C. difficile strains; strain NR-32897): 0.5 µg/mL (≈ 2.92 µM) | MIC (C. difficile strains; strain NR-32903): 0.5 µg/mL (≈ 2.92 µM) | MIC (C. difficile strains; strain NR-32904): 0.5 µg/mL (≈ 2.92 µM) | MIC (C. difficile strains; strain NR-49277): 0.5 µg/mL (≈ 2.92 µM) | MIC (C. difficile strains; strain NR-49278): 0.5 µg/mL (≈ 2.92 µM) | MIC (C. difficile strains; strain NR-49282): 0.5 µg/mL (≈ 2.92 µM) | MIC (C. difficile strains; strain NR-49283): 0.5 µg/mL (≈ 2.92 µM) | MIC (C. difficile strains; strain NR-49284): 0.5 µg/mL (≈ 2.92 µM) | MIC (C. difficile strains; strain NR-49285): 0.5 µg/mL (≈ 2.92 µM) | MIC (C. difficile strains; strain NR-49287): 0.5 µg/mL (≈ 2.92 µM) | MIC (C. difficile strains; strain NR-49288): 0.5 µg/mL (≈ 2.92 µM) | MIC (C. difficile strains; strain NR-49289): 0.5 µg/mL (≈ 2.92 µM) | MIC (C. difficile strains; strain NR-49293): 0.5 µg/mL (≈ 2.92 µM) | MIC (C. difficile strains; strain NR-49295): 0.5 µg/mL (≈ 2.92 µM) | MIC (C. difficile strains; strain NR-49296): 0.5 µg/mL (≈ 2.92 µM) | MIC (C. difficile strains; strain NR-49297): 0.5 µg/mL (≈ 2.92 µM) | MIC (C. difficile strains; strain NR-49299): 0.5 µg/mL (≈ 2.92 µM) | MIC (C. difficile strains; strain NR-49300): 0.5 µg/mL (≈ 2.92 µM) | MIC (C. difficile strains; strain NR-49301): 0.5 µg/mL (≈ 2.92 µM) | MIC (C. difficile strains; strain NR-49303): 0.5 µg/mL (≈ 2.92 µM) | MIC (C. difficile strains; strain NR-49304): 0.5 µg/mL (≈ 2.92 µM) | MIC (C. difficile strains; strain NR-49306): 0.5 µg/mL (≈ 2.92 µM) | MIC (C. difficile strains; strain NR-49307): 0.5 µg/mL (≈ 2.92 µM) | MIC (C. difficile strains; strain NR-49308): 0.5 µg/mL (≈ 2.92 µM) | MIC (C. difficile strains; strain NR-49311): 0.5 µg/mL (≈ 2.92 µM) | MIC (C. difficile strains; strain NR-49312): 0.5 µg/mL (≈ 2.92 µM) | MIC (C. difficile strains; strain NR-49313): 0.5 µg/mL (≈ 2.92 µM) | MIC (C. difficile strains; strain NR-49314): 0.5 µg/mL (≈ 2.92 µM) | MIC (C. difficile strains; strain NR-49315): 0.5 µg/mL (≈ 2.92 µM) | MIC (C. difficile strains; strain NR-49316): 0.5 µg/mL (≈ 2.92 µM) | MIC (C. difficile strains; strain NR-49317): 0.5 µg/mL (≈ 2.92 µM) | MIC (C. difficile strains; strain NR-49319): 0.5 µg/mL (≈ 2.92 µM) | MIC (C. difficile strains; strain NR-49320): 0.5 µg/mL (≈ 2.92 µM) | MIC (C. difficile strains; strain NR-49321): 0.5 µg/mL (≈ 2.92 µM) | MIC (C. difficile strains; strain NR-49325): 0.5 µg/mL (≈ 2.92 µM) | MIC (C. difficile strains; strain NR-49326): 0.5 µg/mL (≈ 2.92 µM) | MIC (C. difficile strains; strain NR-49327): 0.5 µg/mL (≈ 2.92 µM) | MIC (C. difficile strains; strain RMA23691): 0.5 µg/mL (≈ 2.92 µM) | MIC (C. difficile strains; strain RMA23828): 0.5 µg/mL (≈ 2.92 µM) | MIC (C. difficile strains; strain RMA24531): 0.5 µg/mL (≈ 2.92 µM) | MIC (C. difficile strains; strain RMA26675): 4 µg/mL (≈ 23.4 µM) | MIC (C. difficile strains; strain RMA27081): 0.5 µg/mL (≈ 2.92 µM) | MIC (C. difficile strains; strain RMA27173): 4 µg/mL (≈ 23.4 µM) | MIC (K. pneumoniae ATCC700603): > 128 µg/mL

O=[N+]([O-])c1cnc(-c2nc(-c3ccc(OC4CCCC4)cc3)no2)[nH]1 [Compound 57, 3-(4-(Cyclopentyloxy)phenyl)-5-(4-nitro-1H-imidazol-2-yl)-1,2,4-oxadiazole]
MIC (S. aureus; Staphylococcus aureus, S. aureus VRS1, read-out: MIC): 64 µg/mL (≈ 188 µM) | MIC (S. aureus; Staphylococcus aureus, S. aureus VRS2, read-out: MIC): 32 µg/mL (≈ 93.8 µM) | MIC ([2]; S. haemolyticus ATCC 29970, read-out: MIC): 32 µg/mL (≈ 93.8 µM) | IC50 (THP-1 cells; THP-1, 24 h, read-out: LDH (IC50)): > 128 µg/mL | IC50 (THP-1 cells; THP-1, read-out: toxicity IC50 (LDH assay)): > 50 µg/mL | activity against Gram-negative organisms (Gram-negative bacteria): no activity | MIC (C. difficile ATCC 43255 [6]; ATCC43255, 24 h, C. difficile ATCC 43255, 24 h, read-out: MIC (μg/mL) 24 h): 0.125 µg/mL (≈ 0.366 µM) | MIC (C. difficile ATCC 43255 [6]; ATCC43255, C. difficile ATCC43255, read-out: ATCC43255 MIC): 0.25 µg/mL (≈ 0.732 µM) | MIC (C. difficile ATCC 43255 [6]; ATCC43255, C. difficile ATCC43255, read-out: MIC): 0.25 µg/mL (≈ 0.732 µM) | MIC (C. difficile ATCC 43255 [6]; ATCC43255, Table 1, strain ATCC 43255, read-out: MIC C. difficile): 0.25 µg/mL (≈ 0.732 µM) | MIC (C. difficile ATCC 43255 [6]; ATCC43255, strain ATCC43255, read-out: MIC): 0.25 µg/mL (≈ 0.732 µM) | bactericidal or bacteriostatic (C. difficile ATCC 43255 [5]): bactericidal | MIC (K. pneumoniae ATCC700603): > 128 µg/mL
